Assay [1] deals with Puccinia recondita f. Sp. Tritici. The assay is described as follows: Puccinia recondita f. sp. tritici / wheat / leaf disc preventative (brown rust). It is filed as in vivo. The note with it: foliar, 200 ppm in the applied formulation, wheat leaf segments, preventative, assessed 7 to 9 days after application, read-out: disease control compared to untreated control leaf disks. The protocol:
Leaf disks or leaf segments of various plant species are cut from plants grown in a greenhouse. The cut leaf disks or segments are placed in multiwell plates (24-well format) onto water agar. The leaf disks are sprayed with a test solution before (preventative) or after (curative) inoculation. Compounds to be tested are prepared as DMSO solutions (max. 10 mg/mL) which are diluted to the appropriate concentration with 0.025% Tween20 just before spraying. The inoculated leaf disks or segments are incubated under defined conditions (temperature, relative humidity, light, etc.) according to the respective test system. A single evaluation of disease level is carried out 3 to 14 days after inoculation, depending on the pathosystem. Percent disease control relative to the untreated check leaf disks or segments is then calculated.
Example 1: Fungicidal Activity Against Puccinia recondita f. Sp. Tritici/Wheat/Leaf Disc Preventative (Brown Rust)
Wheat leaf segments cv. Kanzler were placed on agar in multiwell plates (24-well format) and sprayed with the formulated test compound diluted in water. The leaf disks were inoculated with a spore suspension of the fungus 1 day after application. The inoculated leaf segments were incubated at 19° C. and 75% relative humidity (rh) under a light regime of 12 hours light/12 hours darkness in a climate cabinet and the activity of a compound was assessed as percent disease control compared to untreated when an appropriate level of disease damage appears in untreated check leaf segments (7 to 9 days after application).
The following compounds at 200 ppm in the applied formulation give at least 80% disease control in this test when compared to untreated control leaf disks under the same conditions, which show extensive disease development.

Assay [2] has as its system Glomerella lacenarium (Colletotrichum lacenarium). The assay is described as follows: Glomerella lacenarium (Colletotrichum lacenarium) liquid culture / cucumber / preventative (anthracnose). In kind it is cell-based. The note with it: 20 ppm in the applied formulation, liquid culture in PDB, 24° C., 3 to 4 days after application, read-out: disease control (inhibition of growth, photometric) compared to untreated control. On the procedure:
Mycelia fragments or conidia suspensions of a fungus prepared either freshly from liquid cultures of the fungus or from cryogenic storage, are directly mixed into nutrient broth. DMSO solutions of the test compound (max. 10 mg/ml) are diluted with 0.025% Tween20 by a factor of 50 and 10 μL of this solution is pipetted into a microtiter plate (96-well format). The nutrient broth containing the fungal spores/mycelia fragments is then added to give an end concentration of the tested compound. The test plates are incubated in the dark at 24° C. and 96% relative humidity. The inhibition of fungal growth is determined photometrically after 2 to 7 days, depending on the pathosystem, and percent antifungal activity relative to the untreated check is calculated.
Example 4: Fungicidal Activity Against Glomerella lacenarium (Colletotrichum lacenarium) Liquid Culture/Cucumber/Preventative (Anthracnose)
Conidia of the fungus from cryogenic storage are directly mixed into nutrient broth (PDB—potato dextrose broth). After placing a (DMSO) solution of test compound into a microtiter plate (96-well format), the nutrient broth containing the fungal spores is added. The test plates are incubated at 24° C. and the inhibition of growth is measured photometrically 3 to 4 days after application.
The following compounds at 20 ppm in the applied formulation give at least 80% disease control in this test when compared to untreated control under the same conditions, which show extensive disease development.

In the case of `O=C(NCc1ccc(-c2noc(C(F)(F)F)n2)cc1)C(=O)NCc1ccco1` [Compound 4.60, N′-(2-furylmethyl)-N-[[4-[5-(trifluoromethyl)-1,2,4-oxadiazol-3-yl]phenyl]methyl] oxamide], the pest or weed control at 200 ppm in assay [1] was ≥ 80%. The inhibition at 20 ppm in assay [2] is ≥ 80%.
For `CN(C(=O)C(=O)Nc1ccc(-c2noc(C(F)(F)F)n2)cc1)C1CCN(C(=O)OC(C)(C)C)C1` (stereo not shown) [Compound 4.22, tert-butyl 3-[methyl-[2-oxo-2-[4-[5-(trifluoromethyl)-1,2,4-oxadiazol-3-yl]anilino]acetyl]amino] pyrrolidine-1-carboxylate], in assay [1], the pest or weed control at 200 ppm is ≥ 80%.
In the case of `CC(=O)C(=O)NCc1ccc(-c2noc(C(F)(F)F)n2)cc1Cl` [Compound 1.60, N-[[2-chloro-4-[5-(trifluoromethyl)-1,2,4-oxadiazol-3-yl]phenyl]methyl]-2-oxo-propanamide], the inhibition at 20 ppm in assay [2] is ≥ 80%.
For the compound `NC(=O)C(=O)N(Cc1ccc(-c2noc(C(F)(F)F)n2)cc1)OCc1ccc(Cl)cc1` [Compound 4.34, N′-[(4-chlorophenyl)methoxy]-N′-[[4-[5-(trifluoromethyl)-1,2,4-oxadiazol-3-yl]phenyl]methyl] oxamide], the pest or weed control at 200 ppm in assay [1] is ≥ 80%. The inhibition at 20 ppm in assay [2] was ≥ 80%.
With `CCON(C)C(=O)C(=O)NCc1ccc(-c2noc(C(F)(F)F)n2)cc1` [Compound 4.43, N′-ethoxy-N′-methyl-N-[[4-[5-(trifluoromethyl)-1,2,4-oxadiazol-3-yl]phenyl]methyl] oxamide], the pest or weed control at 200 ppm in assay [1] is ≥ 80%. The inhibition at 20 ppm in assay [2] is ≥ 80%.
Consider `N#CCCN(CCC#N)C(=O)C(=O)Nc1ccc(-c2noc(C(F)(F)F)n2)cc1` [Compound 4.18, N′,N′-bis(2-cyanoethyl)-N-[4-[5-(trifluoromethyl)-1,2,4-oxadiazol-3-yl]phenyl]oxamide], for which the pest or weed control at 200 ppm in assay [1] is ≥ 80%.
`CCCC(=O)C(=O)N(Cc1ccc(-c2noc(C(F)(F)F)n2)cc1)OCC=C(Cl)Cl` [Compound 1.23, N-(3,3-dichloro-allyloxy)-2-oxo-N-[[4-[5-(trifluoromethyl)-1,2,4-oxadiazol-3-yl]phenyl]methyl]pentanamide]: in assay [2], the inhibition at 20 ppm was ≥ 80%.
For `CON(Cc1ccc(-c2noc(C(F)(F)F)n2)cc1)C(=O)C(=O)NC1CCCCC1` [Compound 4.63, N-cyclohexyl-N′-methoxy-N′-[[4-[5-(trifluoromethyl)-1,2,4-oxadiazol-3-yl]phenyl]methyl] oxamide], in assay [1], the pest or weed control at 200 ppm was ≥ 80%. Besides, in assay [2], the inhibition at 20 ppm is ≥ 80%.
Turning to `CON(Cc1ccc(-c2noc(C(F)(F)F)n2)cc1)C(=O)C(=O)NCc1ccccc1` [Compound 4.71, N-benzyl-N′-methoxy-N'-[[4-[5-(trifluoromethyl)-1,2,4-oxadiazol-3-yl]phenyl]methyl] oxamide], the pest or weed control at 200 ppm in assay [1] was ≥ 80%. The inhibition at 20 ppm in assay [2] was ≥ 80%.
With `CON(Cc1ccc(-c2noc(C(F)(F)F)n2)cc1)C(=O)C(=O)NCc1ccco1` [Compound 4.81, N-(2-furylmethyl)-N′-methoxy-N′-[[4-[5-(trifluoromethyl)-1,2,4-oxadiazol-3-yl]phenyl]methyl] oxamide], the pest or weed control at 200 ppm in assay [1] is ≥ 80%. In addition, the inhibition at 20 ppm in assay [2] was ≥ 80%.
Consider `NC(=O)C(=O)N(Cc1ccc(-c2noc(C(F)(F)F)n2)cc1)Cc1ccco1` [Compound 4.24, N′-(2-furylmethyl)-N′-[[4-[5-(trifluoromethyl)-1,2,4-oxadiazol-3-yl]phenyl]methyl] oxamide], for which, in assay [1], the pest or weed control at 200 ppm is ≥ 80%. For the same compound, the inhibition at 20 ppm in assay [2] was ≥ 80%.
Take `CCCON(Cc1ccc(-c2noc(C(F)(F)F)n2)cc1)C(=O)C(C)=O` [Compound 1.8, 2-oxo-N-propoxy-N-[[4-[5-(trifluoromethyl)-1,2,4-oxadiazol-3-yl]phenyl]methyl]propanamide]: the pest or weed control at 200 ppm in assay [1] was ≥ 80%. For the same compound, in assay [2], the inhibition at 20 ppm was ≥ 80%.
On to `NC(=O)C(=O)NCc1ccc(-c2noc(C(F)(F)F)n2)cc1F` [Compound 4.82, N′-[[2-fluoro-4-[5-(trifluoromethyl)-1,2,4-oxadiazol-3-yl]phenyl]methyl] oxarnide], for which, in assay [2], the inhibition at 20 ppm is ≥ 80%.
`CCCC(=O)C(=O)N(Cc1ccc(-c2noc(C(F)(F)F)n2)cc1)OCc1ccc(Cl)cc1` [Compound 1.24, N-[(4-chlorophenyl)methoxy]-2-oxo-N-[[4-[5-(trifluoromethyl)-1,2,4-oxadiazol-3-yl]phenyl]methyl]pentanamide]: in assay [2], the inhibition at 20 ppm was ≥ 80%.
Still for that read-out and setting: the figure for `CC(=O)C(=O)NCc1ccc(-c2noc(C(F)(F)F)n2)cn1` [Compound 1.28, 2-oxo-N-[[5-[5-(trifluoromethyl)-1,2,4-oxadiazol-3-yl]-2-pyridyl]methyl]propanamide] is ≥ 80%.
For `O=C(NCc1ccccc1)C(=O)NCc1ccc(-c2noc(C(F)(F)F)n2)cc1` [Compound 4.53, N-benzyl-N′-[[4-[5-(trifluoromethyl)-1,2,4-oxadiazol-3-yl]phenyl]methyl] oxamide], the pest or weed control at 200 ppm in assay [1] is ≥ 80%.
For `CCCON(Cc1ccc(-c2noc(C(F)(F)F)n2)cc1)C(=O)C(=O)CCC` [Compound 1.7, 2-oxo-N-propoxy-N-[[4-[5-(trifluoromethyl)-1,2,4-oxadiazol-3-yl]phenyl]methyl]pentanamide], the inhibition at 20 ppm in assay [2] is ≥ 80%.
For `CC(C)CNC(=O)C(=O)NCc1ccc(-c2noc(C(F)(F)F)n2)cc1` [Compound 4.50, N′-isobutyl-N-[[4-[5-(trifluoromethyl)-1,2,4-oxadiazol-3-yl]phenyl]methyl] oxamide], the pest or weed control at 200 ppm in assay [1] was ≥ 80%.
`NC(=O)C(=O)NCc1ccc(-c2noc(C(F)(F)F)n2)c(F)c1` [Compound 4.83, N′-[[3-fluoro-4-[5-(trifluoromethyl)-1,2,4-oxadiazol-3-yl]phenyl]methyl] oxamide]: the inhibition at 20 ppm in assay [2] was ≥ 80%.
Same read-out and setting: in the case of `CCCC(=O)C(=O)N(Cc1ccc(-c2noc(C(F)(F)F)n2)cc1)C(C)CC` (stereo not shown) [Compound 1.11, 2-oxo-N-sec-butyl-N-[[4-[5-(trifluoromethyl)-1,2,4-oxadiazol-3-yl]phenyl]methyl]pentanamide] it was ≥ 80%; in that of `O=C(Nc1ccc(-c2noc(C(F)(F)F)n2)cc1)C(=O)N(Cc1ccc2c(c1)OCO2)CC1OCCO1` [Compound 4.16, N′-(1,3-benzodioxol-5-ylmethyl)-N′-(1,3-dioxolan-2-ylmethyl)-N-[4-[5-(trifluoromethyl)-1,2,4-oxadiazol-3-yl]phenyl]oxamide], ≥ 80%.
The same measure, in the same setting: in the case of `CC(C)(C)CNC(=O)C(=O)NCc1ccc(-c2noc(C(F)(F)F)n2)cc1` [Compound 4.45, N′-(2,2-dimethylpropyl)-N-[[4-[5-(trifluoromethyl)-1,2,4-oxadiazol-3-yl]phenyl]methyl] oxamide] it was ≥ 80%; in that of `CN(C)C(=O)C(=O)N(Cc1ccc(-c2noc(C(F)(F)F)n2)cc1)OCc1ccc(Cl)cc1` [Compound 4.33, N′-[(4-chlorophenyl)methoxy]-N,N-dimethyl-N′-[[4-[5-(trifluoromethyl)-1,2,4-oxadiazol-3-yl]phenyl]methyl] oxamide], ≥ 80%.

By inhibition is commonly meant the share of the control response that was lost under treatment.

Source of the values: patent publication US20180370927A1, “MICROBIOCIDAL OXADIAZOLE DERIVATIVES” (SYNGENTA PARTICIPATIONS AG, priority 2015, published 2018).
